Experimental data: ChEMBL document CHEMBL1151951, “Brartemicin, an inhibitor of tumor cell invasion from the actinomycete Nonomuraea sp” (J Nat Prod, 2009)
Calls of active or inactive are those of the source. The calls are words filed in the database; no cut-off is given here.

Assays:
[1] = Antiinvasive activity against mouse 26-L5 cells at 1 ug/ml; format: functional
[2] = organism: Mus musculus; assay: Cytotoxicity against mouse 26-L5 cells at 10 ug/ml; format: functional, cell-based
[3] = Antiinvasive activity against mouse 26-L5 cells; format: functional, cell-based
[4] = organism: Mus musculus; assay: Antiinvasive activity against mouse 26-L5 cells assessed as inhibition of cell migration; format: functional, cell-based

IC50 [3] [µM] | Structure (SMILES) | Activity [1] [%] | Activity [2] | Activity [4]
– | O=C(OC[C@H]1O[C@H](O[C@H]2O[C@H](COC(=O)c3cccc(O)c3O)[C@@H](O)[C@H](O)[C@H]2O)[C@H](O)[C@@H](O)[C@@H]1O)c1cccc(O)c1O | 40 | – | –
– | O=C(OC[C@H]1O[C@H](O[C@H]2O[C@H](COC(=O)c3ccccc3O)[C@@H](O)[C@H](O)[C@H]2O)[C@H](O)[C@@H](O)[C@@H]1O)c1ccccc1O | 35 | – | –
– | O=C(OC[C@H]1O[C@H](O[C@H]2O[C@H](COC(=O)c3ccccc3)[C@@H](O)[C@H](O)[C@H]2O)[C@H](O)[C@@H](O)[C@@H]1O)c1ccccc1 | 51 | – | –
0.39 | Cc1cc(O)cc(O)c1C(=O)OC[C@H]1O[C@H](O[C@H]2O[C@H](COC(=O)c3c(C)cc(O)cc3O)[C@@H](O)[C@H](O)[C@H]2O)[C@H](O)[C@@H](O)[C@@H]1O [BRARTEMICIN] | 59 | Not toxic | inactive
